Measured values as given in patent publication US10676458B2, “Antidiabetic bicyclic compounds” (Merck Sharp & Dohme Corp., priority 2016, dated 2020).

What follows are compounds tested against human GPR40 (Homo sapiens (Human), UniProt O14842) (assay: Inositol Phosphate Turnover (IP1) Assay). Conditions: HEK cells stably expressing human GPR40; 60 min incubation; CisBio IP-One kit.
Assay type: cell-based
Description: Human GPR40 stable cell-lines were generated in HEK cells. The expression plasmids were transfected using lipofectamine (Life Technologies) following manufacturer's instructions. Stable cell-lines were generated following drug selection and single cell cloning.
The assay was performed in 384-well format. HEK cells stably expressing human GPR40 were plated at 7500 cells per well in growth medium (DMEM/10% fetal calf serum). Cell plates were then incubated 16 hours at 37 degrees in a 5% CO2 incubator. Measurement of Inositol Phosphate Turnover (IP1) was performed using the CisBio IP-One kit (Part number 62IPAPEB). After the 16 hour incubation, the growth media was removed by centrifugation using the BlueWasher (AusWasher GUI Ver. v1.0.1.8) Protocol #21-“Light Dry” and 10 ul of stimulation buffer (prepared as described in the kit) was added to each well. In a separate plate, compounds were diluted in DMSO (200-fold over the final concentration in the assay well) and 50 nl was acoustically transferred to the appropriate well in the assay cell plate. The plates were then incubated for 60 minutes at 37 degrees in a 5% CO2 incubator. 10 ul of detection buffer (also prepared as described in the IP-One kit) was added to each well and the plates were incubated at room temperature for 60 minutes in the dark. The plates were then read in a Perkin Elmer EnVision or equivalent reader able to measure FRET. Fluorescent ratio of emission at 665 and 620 nm was then converted to IP1 concentration by back calculating from an IP1 standard curve prepared at the time of the assay. Data was normalized to % activity using a reference compound and EC50s determined using a standard 4-paramter fit.

human GPR40, sequence (O14842 whole entry): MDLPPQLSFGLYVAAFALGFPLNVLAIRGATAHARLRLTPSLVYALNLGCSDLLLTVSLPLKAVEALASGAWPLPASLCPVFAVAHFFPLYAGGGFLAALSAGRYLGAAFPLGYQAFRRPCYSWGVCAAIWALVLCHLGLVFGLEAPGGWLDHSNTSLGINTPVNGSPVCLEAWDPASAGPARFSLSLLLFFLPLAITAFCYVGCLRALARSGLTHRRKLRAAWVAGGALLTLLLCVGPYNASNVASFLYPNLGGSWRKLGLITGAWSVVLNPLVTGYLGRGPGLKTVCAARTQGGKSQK

Row | SMILES | EC50
1 | COc1ccc(F)c(-c2ccc(C3CCc4ccc([C@H](C5CC5)[C@H](C)C(=O)O)cc4N3)cc2)c1 (single isomer, unassigned) [Example 11, Sodium (2S,3R)-3-cyclopropyl-3-((R or S)-2-(2′-fluoro-5′-methoxy-[1,1′-biphenyl]-4-yl)-1,2,3,4-tetrahydroquinolin-7-yl)-2-methylpropanoate] | 0.00079 µM
2 | COc1ccc(F)c(-c2ccc(C3CCc4ccc([C@H](C5CC5)[C@H](C)C(=O)O)cc4N3)cc2)c1 (single isomer, unassigned) [Example 12, (2S,3R)-3-cyclopropyl-3-((S or R)-2-(2′-fluoro-5′-methoxy-[1,1′-biphenyl]-4-yl)-1,2,3,4-tetrahydroquinolin-7-yl)-2-methylpropanoic acid] | 0.0002 µM
3 | COc1ccc(F)c(-c2ccc(C3CCc4ccc([C@H](C5CC5)[C@H](C)C(=O)O)cc4N3C)cc2)c1 (single isomer, unassigned) [Example 14, (2S,3R)-3-cyclopropyl-3-((R or S)-2-(2′-fluoro-5′-methoxy-[1,1′-biphenyl]-4-yl)-1-methyl-1,2,3,4-tetrahydroquinolin-7-yl)-2-methylpropanoic acid] | 0.001 µM
4 | COc1ccc(F)c(-c2ccc(C3COc4ccc([C@H](C5CC5)[C@H](C)C(=O)O)cc4N3)cc2)c1 (single isomer, unassigned) [Example 17, Sodium (2S,3R)-3-cyclopropyl-3-((R or S)-3-(2′-fluoro-5′-methoxy-[1,1′-biphenyl]-4-yl)-3,4-dihydro-2H-benzo[b][1,4]oxazin-6-yl)-2-methyl propanoate] | 0.01 µM
5 | COc1ccc(F)c(-c2ccc(C3COc4ccc([C@H](C5CC5)[C@H](C)C(=O)O)cc4N3)cc2)c1 (single isomer, unassigned) [Example 18, Sodium (2S,3R)-3-cyclopropyl-3-((S or R)-3-(2′-fluoro-5′-methoxy-[1,1′-biphenyl]-4-yl)-3,4-dihydro-2H-benzo[b][1,4]oxazin-6-yl)-2-methyl propanoate] | 0.0008 µM
6 | COc1ccc(F)c(-c2ccc(C3COc4ccc([C@H](C5CC5)[C@H](C)C(=O)O)cc4N3C)cc2)c1 (single isomer, unassigned) [Example 20, Sodium (2S,3R)-3-cyclopropyl-3-((R or S)-3-(2′-fluoro-5′-methoxy-[1,1′-biphenyl]-4-yl)-4-methyl-3,4-dihydro-2H benzo-[b][1,4]oxazin-6-yl)-2-methyl propanoate] | 0.0008 µM
7 | COc1ccc(F)c(-c2ccc(C3COc4ccc([C@H](C5CC5)[C@H](C)C(=O)O)cc4N3C)cc2)c1 (single isomer, unassigned) [Example 21, Sodium (2S,3R)-3-cyclopropyl-3-((S or R)-3-(2′-fluoro-5′-methoxy-[1,1′-biphenyl]-4-yl)-4-methyl-3,4-dihydro-2H-benzo[b][1,4]oxazin-6-yl)-2-methyl propanoate] | 0.012 µM

Other lines, results leading:

Row | EC50 | SMILES
8 | 0.388 µM | C[C@H](C(=O)O)[C@H](c1ccc2c(c1)NC(C1CCN(Cc3cc(C(F)(F)F)ccc3C(F)(F)F)CC1)CO2)C1CC1 (single isomer, unassigned) [Example 2, Sodium (2S,3S)-3-((R or S)-3-(1-(2,5-Bis(trifluoromethyl)-benzyl)piperidin-4-yl)-3,4-dihydro-2H-benzo[b][1,4]oxazin-6-yl)-3-cyclopropyl-2-methyl propanoate]
9 | 0.642 µM | C[C@H](C(=O)O)[C@H](c1ccc2c(c1)NC(C1CCN(Cc3cc(C(F)(F)F)ccc3C(F)(F)F)CC1)CO2)C1CC1 (single isomer, unassigned) [Example 3, Sodium (2S,3R)-methyl 3-((S or R)-3-(1-(2,5-bis(trifluoro-methyl)-benzyl)-piperidin-4-yl)-3,4-dihydro-2H-benzo[b]-[1,4]oxazin-6-yl)-3-cyclopropyl-2-methylpropanoate]
10 | 4.7 µM | C[C@H](C(=O)O)C(c1ccc2c(c1)N(C)C(C1CCN(Cc3cc(C(F)(F)F)ccc3C(F)(F)F)CC1)CO2)C1CC1 (single isomer, unassigned) [Example 4, Sodium (2S,3S)-3-((R or S)-3-(1-(2,5-bis(trifluoromethyl)benzyl)piperidin-4-yl)-4-methyl-3,4-di-hydro-2H-benzo[b][1,4]oxazin-6-yl)-3-cyclopropyl-2-methylpropanoate]
11 | 2.1 µM | C[C@H](C(=O)O)[C@H](c1ccc2c(c1)N(C)C(C1CCN(Cc3cc(C(F)(F)F)ccc3C(F)(F)F)CC1)CO2)C1CC1 (single isomer, unassigned) [Example 5, Sodium (2S,3S)-3-((S or R)-3-(1-(2,5-bis(trifluoro-methyl)-benzyl)piperidin-4-yl)-4-methyl-3,4-dihydro-2H-benzo[b]-[1,4]oxazin-6-yl)-3-cyclopropyl-2-methyl propanoate]
12 | 0.035 µM | C[C@H](C(=O)O)[C@H](c1ccc2c(c1)NC(C1CCN(Cc3cc(C(F)(F)F)ccc3C(F)(F)F)CC1)CC2)C1CC1 (single isomer, unassigned) [Example 6, Sodium (2S,3R)-3-((R or S)-2-(1-(2,5-bis(trifluoromethyl)benzyl)piperidin-4-yl)-1,2,3,4-tetrahydroquinolin-7-yl)-3-cyclopropyl-2-methylpropanoate]
13 | 0.099 µM | C[C@H](C(=O)O)[C@H](c1ccc2c(c1)NC(C1CCN(Cc3cc(C(F)(F)F)ccc3C(F)(F)F)CC1)CC2)C1CC1 (single isomer, unassigned) [Example 7, Sodium (2S,3R)-3-((S or R)-2-(1-(2,5-bis(tri-fluoromethyl)-benzyl)-piperidin-4-yl)-1,2,3,4-tetrahydroquin-olin-7-yl)-3-cyclo-propyl-2-methyl propanoate]
14 | 0.439 µM | C[C@H](C(=O)O)[C@H](c1ccc2c(c1)N(C)C(C1CCN(Cc3cc(C(F)(F)F)ccc3C(F)(F)F)CC1)CC2)C1CC1 (single isomer, unassigned) [Example 8, (2S,3R)-3-((R or S)-2-(1-(2,5-bis(trifluoromethyl)benzyl)piperidin-4-yl)-1-methyl-1,2,3,4-tetrahydroquinolin-7-yl)-3-cyclopropyl-2-methylpropanoic acid]
15 | 0.289 µM | C[C@H](C(=O)O)[C@H](c1ccc2c(c1)N(C)C(C1CCN(Cc3cc(C(F)(F)F)ccc3C(F)(F)F)CC1)CC2)C1CC1 (single isomer, unassigned) [Example 9, (2S,3R)-3-((S or R)-2-(1-(2,5-bis(trifluoromethyl)-benzyl)piperidin-4-yl)-1-methyl-1,2,3,4-tetrahydroquinolin-7-yl)-3-cyclopropyl-2-methyl propanoic acid]
16 | 0.012 µM | COc1ccc(F)c(-c2ccc(C3CCc4ccc([C@H](C5CC5)[C@H](C)C(=O)O)cc4N3C)cc2)c1 (single isomer, unassigned) [Example 15, (2S,3R)-3-cyclopropyl-3-((S or R)-2-(2′-fluoro-5′-methoxy-[1,1′-biphenyl]-4-yl)-1-methyl-1,2,3,4-tetrahydroquinolin-7-yl)-2-methylpropanoic acid]
17 | 0.611 µM | C[C@H](C(=O)O)[C@H](c1ccc2c(c1)CN(C1CCN(Cc3cc(C(F)(F)F)ccc3C(F)(F)F)CC1)CC2)C1CC1 [Example 1, (2S,3R)-3-(2-(1-(2,5-bis(Trifluoromethyl)benzyl)piperidin-4-yl)-1,2,34-tetrahydroisoquinolin-7-yl)-3-cyclopropyl-2-methylpropanoic acid]
